Results from US20210251972A1, “Methods Of Treating Fabry Disease” (Amicus Therapeutics, Inc., priority 2020, published 2021).

System: ERT-experienced patients with Fabry disease and migalastat-amenable GLA variants
Assay: Composite clinical outcomes (CCOs) in ATTRACT (AT1001-012) and open-label extension studies AT1001-041/AT1001-042, Phase 3
Format: in vivo, human
Settings: for Incidence rate of composite clinical outcomes (CCOs): all patients; for Median time to first CCO: overall
From the text: Patients initiated ERT ≥12 months prior to the study.
AT1001-041 (NCT01458119) was a long-term OLE study evaluating the long-term safety and efficacy of migalastat in patients completing a previous migalastat study.
AT1001-042 (NCT02194985) is an ongoing, long-term OLE study evaluating the long-term safety and efficacy of migalastat in patients who participated in AT1001-012 or AT1001-041.
CCOs were defined prior to the planned analysis and included: • Renal events (a decrease in eGFRCKD-EPI≥15 mL/min/1.73 m^2, with the decreased eGFR<90 mL/min/1.73 m^2 relative to baseline; or an increase in 24-hour urine protein≥33%, with elevated protein≥300 mg relative to baseline) • Cardiac events (myocardial infarction; unstable cardiac angina; new symptomatic arrhythmia requiring antiarrhythmic medication, direct current cardioversion, pacemaker, or defibrillator implantation; congestive heart failure [New York Association Class III or IV]) • Cerebrovascular events (stroke or transient ischemic attack) • Death
Exposure to migalastat was calculated from the day of the first dose to the last available data point or the date of discontinuation; for this analysis, the exposure to ERT comprised the duration of participation in the ATTRACT study, and lasted up to 18 months.
Incidence rates were calculated for renal, cerebrovascular, and cardiac events separately and for the composite clinical outcomes. All individual events were accounted for when calculating incidence. Median times to the first clinical event were calculated based on the same data used for the incidence rates.
A direct comparison between migalastat and ERT was based on the 18 months exposure (the ERT data were from first 18 months in ATTRACT only); in addition, the incidence of CCOs for the whole follow-up period was calculated for migalastat (ATTRACT and subsequent OLE studies)
The long-term incidence for migalastat was calculated based on all available data for migalastat.

For `Cl.OC[C@H]1NC[C@H](O)[C@@H](O)[C@H]1O` [Migalastat, (2R,3S,4R,5S)-2-(hydroxymethyl) piperdine-3,4,5-triol], the “Incidence rate of composite clinical outcomes (CCOs)” value (“Incidence rate … (CCOs)” for short) (first 18 months of treatment) was 0.41 per patient·year, the “Incidence rate … (CCOs)” value (long-term follow-up, at the data cutoff (median 4.8 years)) was 0.45 per patient·year and the “Median time to first composite clinical outcome” value (females, 0-4.8 years) was 1.15 Years. The “Incidence rate, cardiac event” value (females, at 4.8 years) was 0.02 per patient·year, the “Incidence rate, cerebrovascular event” value (females, at 4.8 years) was 0.02 per patient·year and the “Incidence rate, death” value (females, at 4.8 years) was 0 per patient·year. For the same molecule, the “Incidence rate, renal event” value (females, at 4.8 years) was 0.33 per patient·year, the “Incidence rate, composite clinical outcome” value (females, at 4.8 years (data cutoff)) was 0.37 per patient·year and the “Incidence rate, cardiac event” value (females, at 18 months) was 0.05 per patient·year. For the same molecule, the “Incidence rate, cerebrovascular event” value (females, at 18 months) was 0 per patient·year, the “Incidence rate, composite clinical outcome” value (females, at 18 months) was 0.34 per patient·year and the “Incidence rate, death” value (females, at 18 months) was 0 per patient·year. For the same molecule, the “Incidence rate, renal event” value (females, at 18 months) was 0.29 per patient·year, the “Median time to first composite clinical outcome” value (males, 0-4.8 years) was 1.30 Years and the “Incidence rate, cardiac event” value (males, at 4.8 years) was 0.04 per patient·year. For the same molecule, the “Incidence rate, cerebrovascular event” value (males, at 4.8 years) was 0.01 per patient·year, the “Incidence rate, death” value (males, at 4.8 years) was 0 per patient·year and the “Incidence rate, renal event” value (males, at 4.8 years) was 0.51 per patient·year. For the same molecule, the “Incidence rate, composite clinical outcome” value (males, at 4.8 years (data cutoff)) was 0.56 per patient·year, the “Incidence rate, cardiac event” value (males, at 18 months) was 0.07 per patient·year and the “Incidence rate, cerebrovascular event” value (males, at 18 months) was 0 per patient·year. The “Incidence rate, composite clinical outcome” value (males, at 18 months) was 0.50 per patient·year, the “Incidence rate, death” value (males, at 18 months) was 0 per patient·year and the “Incidence rate, renal event” value (males, at 18 months) was 0.43 per patient·year. For the same molecule, the “Median time to first CCO” value (migalastat exposure (0-4.8 years)) was 1.17 years.

B1: ERT: enzyme replacement therapy: infusion of purified α-Gal A, e.g. agalsidase alfa (Replagal) or agalsidase beta (Fabrazyme) (protein, UniProt P06280 32-429, looked up)
Alpha-galactosidase A: LDNGLARTPTMGWLHWERFMCNLDCQEEPDSCISEKLFMEMAELMVSEGWKDAGYEYLCIDDCWMAPQRDSEGRLQADPQRFPHGIRQLANYVHSKGLKLGIYADVGNKTCAGFPGSFGYYDIDAQTFADWGVDLLKFDGCYCDSLENLADGYKHMSLALNRTGRSIVYSCEWPLYMWPFQKPNYTEIRQYCNHWRNFADIDDSWKSIKSILDWTSFNQERIVDVAGPGGWNDPDMLVIGNFGLSWNQQVTQMALWAIMAAPLFMSNDLRHISPQAKALLQDKDVIAINQDPLGKQGYQLRQGDNFEVWERPLSGLAWAVAMINRQEIGGPRSYTIAVASLGKGVACNPACFITQLLPVKRKLGFYEWTSRLRSHINPTGTVLLQLENTMQMSLKDLL
With B1 the “Incidence rate … (CCOs)” value (first 18 months of treatment) was 0.85 per patient·year, the “Median time to first composite clinical outcome” value (females, 0-18 months) was 0.35 Years and the “Incidence rate, cardiac event” value (females, at 18 months) was 0.42 per patient·year. The “Incidence rate, cerebrovascular event” value (females, at 18 months) was 0 per patient·year, the “Incidence rate, composite clinical outcome” value (females, at 18 months) was 0.98 per patient·year and the “Incidence rate, death” value (females, at 18 months) was 0 per patient·year. For the same molecule, the “Incidence rate, renal event” value (females, at 18 months) was 0.56 per patient·year, the “Median time to first composite clinical outcome” value (males, 0-18 months) was 0.25 Years and the “Incidence rate, cardiac event” value (males, at 18 months) was 0 per patient·year. The “Incidence rate, cerebrovascular event” value (males, at 18 months) was 0.10 per patient·year, the “Incidence rate, composite clinical outcome” value (males, at 18 months) was 0.68 per patient·year and the “Incidence rate, death” value (males, at 18 months) was 0 per patient·year. The “Incidence rate, renal event” value (males, at 18 months) was 0.58 per patient·year and the “Median time to first CCO” value (ERT exposure (0-18 months)) was 0.25 years.
